Source: paper PMC11945486, “TAS1R2/TAS1R3 Single-Nucleotide Polymorphisms Affect Sweet Taste Receptor Activation by Sweeteners: The SWEET Project” (Nutrients, 2025)
One block for each molecule: values may come before it. No end group written: not given here.

Target: T1, human TAS1R2-I595T/TAS1R3-WT (Homo sapiens, UniProt Q7RTX0+Q8TE23, I595T)
T1 construct: expressed in transfected cells; host or cells: HEK293T-Gα16gust44
T1 sequence (Q8TE23 20-839 I595T): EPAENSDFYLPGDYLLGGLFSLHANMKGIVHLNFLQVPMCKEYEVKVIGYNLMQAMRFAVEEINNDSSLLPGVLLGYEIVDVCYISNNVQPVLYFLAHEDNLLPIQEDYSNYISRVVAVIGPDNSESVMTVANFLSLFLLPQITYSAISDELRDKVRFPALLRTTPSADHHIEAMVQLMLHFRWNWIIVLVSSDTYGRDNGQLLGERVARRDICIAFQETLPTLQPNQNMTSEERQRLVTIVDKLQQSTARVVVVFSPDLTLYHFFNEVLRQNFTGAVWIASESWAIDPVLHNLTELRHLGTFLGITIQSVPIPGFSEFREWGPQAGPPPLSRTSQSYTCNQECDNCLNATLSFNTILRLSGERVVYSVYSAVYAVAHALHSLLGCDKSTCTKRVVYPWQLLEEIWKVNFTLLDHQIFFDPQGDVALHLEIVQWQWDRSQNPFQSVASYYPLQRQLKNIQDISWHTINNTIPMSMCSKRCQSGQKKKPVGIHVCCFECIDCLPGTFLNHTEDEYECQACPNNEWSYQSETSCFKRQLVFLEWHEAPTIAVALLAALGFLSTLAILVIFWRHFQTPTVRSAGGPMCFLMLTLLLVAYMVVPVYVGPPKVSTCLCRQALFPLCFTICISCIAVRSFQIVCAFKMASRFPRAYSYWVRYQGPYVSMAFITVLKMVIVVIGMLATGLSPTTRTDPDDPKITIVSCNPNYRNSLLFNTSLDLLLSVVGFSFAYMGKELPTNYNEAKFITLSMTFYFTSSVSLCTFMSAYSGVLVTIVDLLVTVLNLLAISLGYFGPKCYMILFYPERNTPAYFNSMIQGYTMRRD
T1 sequence (Q7RTX0 21-852): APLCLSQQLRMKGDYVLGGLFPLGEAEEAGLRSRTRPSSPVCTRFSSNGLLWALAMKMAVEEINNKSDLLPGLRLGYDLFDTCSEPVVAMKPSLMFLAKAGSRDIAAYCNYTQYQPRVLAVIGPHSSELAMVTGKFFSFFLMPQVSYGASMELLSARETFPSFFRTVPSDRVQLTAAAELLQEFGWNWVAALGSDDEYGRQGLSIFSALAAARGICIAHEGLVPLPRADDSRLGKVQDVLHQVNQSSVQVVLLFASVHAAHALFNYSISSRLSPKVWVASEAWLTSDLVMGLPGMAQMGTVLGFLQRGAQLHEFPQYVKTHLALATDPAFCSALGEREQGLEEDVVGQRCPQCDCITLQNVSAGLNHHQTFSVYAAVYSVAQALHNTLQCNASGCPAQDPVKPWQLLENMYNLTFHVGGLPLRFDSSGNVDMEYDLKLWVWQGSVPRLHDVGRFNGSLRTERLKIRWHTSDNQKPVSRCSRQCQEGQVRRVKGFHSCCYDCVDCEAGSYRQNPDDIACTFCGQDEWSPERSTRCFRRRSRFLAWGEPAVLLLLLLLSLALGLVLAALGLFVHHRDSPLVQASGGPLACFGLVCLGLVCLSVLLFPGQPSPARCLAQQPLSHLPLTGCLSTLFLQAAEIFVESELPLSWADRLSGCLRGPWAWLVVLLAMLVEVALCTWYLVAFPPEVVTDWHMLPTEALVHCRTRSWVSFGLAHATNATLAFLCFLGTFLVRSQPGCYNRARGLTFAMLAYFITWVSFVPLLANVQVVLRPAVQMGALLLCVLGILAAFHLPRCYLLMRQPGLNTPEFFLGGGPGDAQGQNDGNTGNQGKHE
Test: Calcium mobilisation assay, TAS1R2 variant I595T with TAS1R3-WT
Assay type: cell-based
Details: "-": no activation; for Max ΔF/F0: maximal signal amplitude
Excerpt: The coding sequences for TAS1R2 and TAS1R3 were commercially synthesised, and the human codon was optimised for expression in human cells. The coding sequences of human TAS1R2 and TAS1R3 were subcloned and inserted into the mammalian expression vectors pcDNA6/myc-HisA and pcDNA4/myc-HisA (Invitrogen; Thermo Fisher Scientific; Illkirch, France) between the EcoRI and NotI restriction sites, generating the plasmids pcDNA6-TAS1R2 and pcDNA4-TAS1R3, respectively. To increase protein expression in mammalian cells, an upstream start codon was used, which was a sequence called MAX, corresponding to the QBI SP163 element also described in pcDNA4-HisMax (Invitrogen; Thermo Fisher Scientific; Illkirch, France). To measure the expression level of the receptor by immunohistochemistry, we used the FLAG sequence ([…]) in the C-terminal position, which encodes the FLAG tag epitope. SNP variants of TAS1R2 and TAS1R3 were constructed based on […], respectively, using site-directed mutagenesis (Genewiz; Leipzig, Germany).
The HEK293T cells were kindly provided by Jay P. Slack (Givaudan Flavors Corporation; Cincinnati, OH, USA). HEK293T cells stably transfected with Gα16gust44 [43, 67] were seeded in poly-D-lysine-coated clear-bottom black 96-well plates (0.35 × 10^5 cells/well) in high-glucose DMEM supplemented with 2 mM GlutaMAX, 10% dialysed foetal bovine serum with penicillin/streptomycin and G418 (400 μg/mL) at 37 °C and 6.3% CO2 in a humidified atmosphere as previously reported. […] As a negative control, HEK293T cells were mock-transfected with the empty expression vector. After a further 24 h of incubation, the HEK293T cells were washed with C1 buffer (130 mM NaCl, 5 mM KCl, 10 mM HEPES pH 7.4 and 2 mM CaCl2). The 96-well plates containing the cells were then stimulated with sweet-tasting compounds. […] Different concentration ranges were tested depending on the sweet compound injected. The Ca^2+ changes were expressed as fractional changes in fluorescent light intensity: ΔF/F = (F − F0)/F0, where F was the fluorescent light intensity at each point, and F0 was the value of emitted fluorescent light prior to stimulus application. To calculate dose–response relationships, the changes in fluorescence upon stimulus application were averaged, mock-subtracted and baseline-corrected. The dose–response data obtained were adjusted using a 4-parameter logistic equation. The half-maximal effective concentrations (EC50 values) and maximal signal amplitudes were calculated using SigmaPlot software (version 15.0) (Systat Software; San Jose, CA, USA).
For in vitro calcium mobilisation assay performed on hTAS1R2-SNPs, hTAS1R3-SNPs and mTAS1R3-I60T, 6 to 7 concentrations were tested for each sweet compound, plus buffer alone. All concentration–receptor combinations were measured in duplicate, and each experiment was repeated at least 4 times (8 wells/concentration). Results were expressed for each concentration as ΔF/F mean ± SEM and represented as dose–response curves.

Molecule: O=S(=O)(O)NC1CCCCC1 [Cyclamate, cyclamate]
EC50: 2030 ± 102 µM

Molecule: C[C@H](CC[C@@H](O[C@@H]1O[C@H](CO[C@@H]2O[C@H](CO)[C@@H](O)[C@H](O)[C@H]2O)[C@@H](O)[C@H](O)[C@H]1O[C@@H]1O[C@H](CO)[C@@H](O)[C@H](O)[C@H]1O)C(C)(C)O)[C@H]1CC[C@@]2(C)[C@@H]3CC=C4[C@@H](CC[C@H](O[C@@H]5O[C@H](CO[C@@H]6O[C@H](CO)[C@@H](O)[C@H](O)[C@H]6O)[C@@H](O)[C@H](O)[C@H]5O)C4(C)C)[C@]3(C)[C@H](O)C[C@]12C [Mogroside V, mogroside V]
EC50: 31.4 ± 6 µM
R1 = Variant EC50/WT EC50: 1.8
Max ΔF/F0: 0.27 ± 0.03

Molecule: COC(=O)[C@H](Cc1ccccc1)NC(=O)[C@H](CC(=O)O)NCCC(C)(C)C [Neotame]
EC50: 1.27 ± 0.18 µM
R1 = Variant EC50/WT EC50: 1.5
Max ΔF/F0: 0.09 ± 0.01

Molecule: brazzein (QDKCKKVYENYPVSKCQLANQCNYDCKLDKHARSGECFYDEKRNLQCICDYCEY; ends and bridges not checked; cysteine pairing not given here; UniProt P56552 1-54, looked up) [sweet-tasting protein obtained by recombinant production using the yeast Pichia pastoris]
R1 = Variant EC50/WT EC50: 10.8
Max ΔF/F0: 0.13 ± 0.02

Molecule: thaumatin
R1 = Variant EC50/WT EC50: 3.7
Max ΔF/F0: 0.39 ± 0.01

The remaining lines, values ahead:

EC50: 300 ± 139 µM
R1 = Variant EC50/WT EC50: 0.4
Max ΔF/F0: 0.02 ± 0.01
Molecule: CC1=CC(=O)NS(=O)(=O)O1 [Acesulfame K, acesulfame K]

EC50: 70.3 ± 1.3 µM
R1 = Variant EC50/WT EC50: 0.9
Max ΔF/F0: 0.09 ± 0.01
Molecule: COc1ccc(CCC(=O)c2c(O)cc(O[C@@H]3O[C@H](CO)[C@@H](O)[C@H](O)[C@H]3O[C@@H]3O[C@@H](C)[C@H](O)[C@@H](O)[C@H]3O)cc2O)cc1O [NHDC, neohesperidin dihydrochalcone]

EC50: 53.2 ± 1.6 µM
R1 = Variant EC50/WT EC50: 3.0
Max ΔF/F0: 0.51 ± 0.01
Molecule: C=C(C)[C@@H]1CC=C(/C=N/O)CC1 [Perillartine, perillartine]

EC50: 35.8 ± 4 µM
R1 = Variant EC50/WT EC50: 2.1
Max ΔF/F0: 0.23 ± 0.01
Molecule: C=C1C[C@@]23CC[C@H]4[C@@](C)(CCC[C@@]4(C)C(=O)O[C@@H]4O[C@H](CO)[C@@H](O)[C@H](O[C@@H]5O[C@H](CO)[C@@H](O)[C@H](O)[C@H]5O)[C@H]4O[C@@H]4O[C@H](CO)[C@@H](O)[C@H](O)[C@H]4O)[C@@H]2CC[C@]1(O[C@@H]1O[C@H](CO)[C@@H](O)[C@H](O[C@@H]2O[C@H](CO)[C@@H](O)[C@H](O)[C@H]2O)[C@H]1O[C@@H]1O[C@H](CO)[C@@H](O)[C@H](O)[C@H]1O)C3 [Rebaudioside M, rebaudioside M]

EC50: 108 ± 5 µM
R1 = Variant EC50/WT EC50: 1.2
Max ΔF/F0: 0.08 ± 0.02
Molecule: OC[C@H]1O[C@H](O[C@]2(CCl)O[C@H](CCl)[C@@H](O)[C@@H]2O)[C@H](O)[C@@H](O)[C@H]1Cl [Sucralose]

EC50: 27.8 ± 1.4 µM
B1: thaumatin (protein)
chain: ATFEIVNRCSYTVWAAASKGDAALDAGGRQLNSGESWTINVEPGTKGGKIWARTDCYFDDSGSGICKTGDCGGLLRCKRFGRPPTTLAEFSLNQYGKDYIDISNIKGFNVPMDFSPTTRGCRGVRCAADIVGQCPAKLKAPGGGCNDACTVFQTSEYCCTTGKCGPTEYSRFFKRLCPDAFSYVLDKPTTVTCPGSSNYRVTFCPTA
modifications: Eight disulfides
notes: sweet-tasting plant protein, E957
